This assay deals with Plasmodium berghei. Put plainly: Luciferase/luciferin-expressing antifolate-resistant parasites were used to infect a culture of HepG2 cells that were pre-incubated with compounds. Infected hepatocytes emit light due to the luciferase reaction. Assay results are presented as the percent inhibition of light emission compared to control. […]. The assay is classed as functional. The following applies: sporozoite; for IC90: read-out: LUCIFERASE INFECTION ASSAY - IC90.

Where [1] appears, read: read-out: LUCIFERASE INFECTION ASSAY - IC50.

As usually defined, the IC50 is the concentration that gives 50% inhibition. Broadly, the IC90 is the concentration needed for an effect of 90%.

Molecules are shown by their SMILES.

Turning to `CCCCc1[nH]nc2ccnc(-c3ccc(OC)c(OC)c3)c12`, the IC90 was determined as 1.3 µM. Also, the IC50 under setting [1] worked out at 0.979 µM.
The matching figures for `Cc1cc(C(=O)OCC(=O)NC2CCCCCCC2)c(C)n1-c1ccccc1`: greater than 10 µM and greater than 10 µM.
The matching figures for `COC(=O)C1=C(C)NC(C)=C(C(=O)OC)C1c1cc(NC(=O)NC2CCCCC2)ccc1OC(F)F`: greater than 10 µM and greater than 10 µM.
For `O=C(N/N=C1/C(=O)c2cccc3cccc1c23)c1ccccc1-n1cccc1`, the IC90 was greater than 10 µM. Moreover, the IC50 (PBLUC_HILL_SLOPE 0.275, PBLUC_R_SQUARED 0.0663, read-out: LUCIFERASE INFECTION ASSAY - IC50) is greater than 10 µM.
For `CC(=O)c1ccc(-c2cnc3sc(NCCN4CCOCC4)nn23)s1`, the IC90 was greater than 8.74 µM. The IC50 (PBLUC_HILL_SLOPE 1.89, PBLUC_R_SQUARED 0.43, read-out: LUCIFERASE INFECTION ASSAY - IC50) came out at 5.97 µM.
On to `Brc1ccc(-c2csc3ncnc(NCc4ccc(-n5ccnc5)nc4)c23)cc1`, for which the concentration for an effect of 90% (IC90) was greater than 10 µM. The IC50 (HEPG2TOX_HILL_SLOPE 1.16, HEPG2TOX_R_SQUARED 0.868, read-out: LUCIFERASE INFECTION ASSAY - IC50) was greater than 10 µM.
For the compound `C=CCn1c(C)cc(C(=O)CSc2nc3ccccc3[nH]2)c1C`, the 90% effect concentration (IC90) came to 0.467 µM. Further, the IC50 (PBLUC_HILL_SLOPE 12.6, PBLUC_R_SQUARED 0.563, read-out: LUCIFERASE INFECTION ASSAY - IC50) stood at 0.393 µM.
Regarding `CC(C)(C)c1ccc(COc2cccnc2N=CNO)cc1`, the IC90 is greater than 11 µM. Where the note is “PBLUC_HILL_SLOPE 1.74, PBLUC_R_SQUARED 0.362, read-out: LUCIFERASE INFECTION ASSAY - IC50”, the IC50 worked out at 6.6 µM.
As for `COc1ccc(/C=C(\C#N)C(=O)N(CCCN2C(=O)c3cccc4cccc(c34)C2=O)c2ccc(C)cc2C)cc1`, the IC90 was greater than 10 µM. Further, for the setting “FFLUC_HILL_SLOPE 3.25, FFLUC_R_SQUARED 0.523, read-out: LUCIFERASE INFECTION ASSAY - IC50”, the IC50 is greater than 10 µM.
With `Cn1nc(-c2ccc(C(=O)Nc3ccccc3)s2)cc1C(F)(F)F`, the IC90 was 8.54 µM. Also, under “HEPG2TOX_HILL_SLOPE 17.1, HEPG2TOX_R_SQUARED 0.873, PBLUC_HILL_SLOPE 3.01, PBLUC_R_SQUARED 0.475, read-out: LUCIFERASE INFECTION ASSAY - IC50”, the IC50 turned out to be 4.12 µM.
Consider `COc1ccc(-c2csc(NC(=O)CN3CCN(c4ncnc5c4cnn5C)CC3)n2)cc1`, for which the IC90 worked out at 3.88 µM. Besides, the IC50 (HEPG2TOX_HILL_SLOPE 1.28, 1.59, HEPG2TOX_R_SQUARED 0.849, 0.471, PBLUC_HILL_SLOPE 15.7, 12.8, PBLUC_R_SQUARED 0.495, 0.575, read-out: LUCIFERASE INFECTION ASSAY - IC50) worked out at 3.31 µM.
Consider `COc1cc(NC(=O)COC(=O)c2c3c(nc4ccccc24)CCC(C(C)(C)C)C3)c(C)cc1[N+](=O)[O-]` (stereo not given), for which the IC90 was greater than 10 µM. Also, the IC50 (HEPG2TOX_HILL_SLOPE 0.52, HEPG2TOX_R_SQUARED 0.623, PBLUC_HILL_SLOPE 14.9, PBLUC_R_SQUARED 0.282, read-out: LUCIFERASE INFECTION ASSAY - IC50) is greater than 10 µM.
In the case of `O=C(COc1ccccc1)Nc1nc2ccccn2c1C(=O)NC1CCCCC1`, the IC90 came out at 6.99 µM. Where the note is “HEPG2TOX_HILL_SLOPE 7.86, HEPG2TOX_R_SQUARED 0.377, PBLUC_HILL_SLOPE 5.91, PBLUC_R_SQUARED 0.352, read-out: LUCIFERASE INFECTION ASSAY - IC50”, the IC50 came to 4.82 µM.
For `CCOC(=O)c1c(-c2ccccc2)oc2ccc(OCC(O)CNCCN(C)C)cc12` (stereo not given), the IC90 is greater than 10 µM. Further, the IC50 (PBLUC_HILL_SLOPE 9.38, PBLUC_R_SQUARED 0.614, read-out: LUCIFERASE INFECTION ASSAY - IC50) is 8.91 µM.
Take `CCCn1c(NC(=O)C2CCCN2C(=O)C23CC4CC(CC(C4)C2)C3)nc2ccccc21` (stereo not given): the IC90 was determined as 9.69 µM. For the same compound, the IC50 (PBLUC_HILL_SLOPE 41.1, PBLUC_R_SQUARED 0.0887, read-out: LUCIFERASE INFECTION ASSAY - IC50) was found to be 9.19 µM.
`Cc1ccc(NS(=O)(=O)c2cccc(C(=O)OC(C)C(=O)c3cc(C)n(-c4ccc(Cl)cc4)c3C)c2)cc1` (stereo not given): the IC90 amounted to 3.6 µM. Also, the IC50 (HEPG2TOX_HILL_SLOPE 1.57, HEPG2TOX_R_SQUARED 0.97, PBLUC_HILL_SLOPE 17.7, PBLUC_R_SQUARED 0.634, read-out: LUCIFERASE INFECTION ASSAY - IC50) was 3.18 µM.
As for `O=C(Nc1ccc(OC(F)(F)F)cc1)Nc1cc(-c2cccs2)n[nH]1`, the IC90 was greater than 8.96 µM. For the same compound, under setting [1], the IC50 is greater than 8.96 µM.
Take `COc1cc(OC)c2[nH]c(C(=O)NCCc3ccc(-c4csc(C)n4)s3)cc2c1`: the IC90 is greater than 10 µM. In addition, the IC50 under setting [1] was greater than 10 µM.
`O=C1C(=O)N(CN2CCc3sccc3C2c2ccccc2)c2ccc(F)cc21` (stereo not given): the IC90 came to 2.51 µM. Besides, the IC50 (HEPG2TOX_HILL_SLOPE 2.62, HEPG2TOX_R_SQUARED 0.103, PBLUC_HILL_SLOPE 2.21, PBLUC_R_SQUARED 0.632, read-out: LUCIFERASE INFECTION ASSAY - IC50) amounted to 0.929 µM.
With `CS(=O)(=O)c1ccc(N2CCN(c3ccnc4cc(Cl)ccc34)CC2)c([N+](=O)[O-])c1`, the IC90 turned out to be 8.81 µM. The concentration for half-maximal inhibition (IC50) (HEPG2TOX_HILL_SLOPE 8.04, HEPG2TOX_R_SQUARED 0.676, PBLUC_HILL_SLOPE 3.39, PBLUC_R_SQUARED 0.378, read-out: LUCIFERASE INFECTION ASSAY - IC50) was 4.61 µM.
Regarding `COc1ccc2cc(C(C)C(=O)N3CCN(S(=O)(=O)/C=C/c4ccccc4)CC3)ccc2c1` (stereo not given), the IC90 was greater than 10 µM. Moreover, the IC50 under setting [1] is greater than 10 µM.
For the compound `O=C(c1ccc(Cl)cc1)N1CCCC(C(=O)N2CCN(Cc3ccc4c(c3)CCO4)CC2)C1` (stereo not given), the IC90 is greater than 10 µM. The IC50 under setting [1] was greater than 10 µM.
Consider `Clc1ccc(SCc2cc(N3CCCCC3)nc(-c3ccccn3)n2)cc1`, for which the IC90 stood at 2.67 µM. For the same compound, the IC50 (HEPG2TOX_HILL_SLOPE 3.02, HEPG2TOX_R_SQUARED 0.983, PBLUC_HILL_SLOPE 17.6, PBLUC_R_SQUARED 0.462, read-out: LUCIFERASE INFECTION ASSAY - IC50) is 2.35 µM.
With `CC(C)(Oc1ccc(Cl)cc1)C(=O)Nc1ccc(F)c(S(=O)(=O)N2CCOCC2)c1`, the IC90 was greater than 10 µM. The IC50 under setting [1] was greater than 10 µM.
As for `CCN(Cc1ccccc1)C(=O)c1cc(-c2ccccc2)nc2c1cnn2CC`, the IC90 is greater than 10 µM. For the same compound, under setting [1], the IC50 was greater than 10 µM.

These data come from ChEMBL document CHEMBL4483862, “Open-source discovery of chemical leads for next-generation chemoprotective antimalarials” (2018).
